Source: patent US8034940B2, “Modulators of glucocorticoid receptor, AP-1, and/or NF-κB activity and use thereof” (Bristol-Myers Squibb Company, priority 2006, dated 2011)

What was measured:
[1] = target: T1, human full-length glucocorticoid receptor (Homo sapiens, UniProt P04150); assay: Glucocorticoid Receptor Binding Assay (II), fluorescence polarization, FITC-dexamethasone; set-up: recombinantly expressed human full-length glucocorticoid receptor; purchased PanVera Co., Madison P2816
T1 sequence (P04150 1-777): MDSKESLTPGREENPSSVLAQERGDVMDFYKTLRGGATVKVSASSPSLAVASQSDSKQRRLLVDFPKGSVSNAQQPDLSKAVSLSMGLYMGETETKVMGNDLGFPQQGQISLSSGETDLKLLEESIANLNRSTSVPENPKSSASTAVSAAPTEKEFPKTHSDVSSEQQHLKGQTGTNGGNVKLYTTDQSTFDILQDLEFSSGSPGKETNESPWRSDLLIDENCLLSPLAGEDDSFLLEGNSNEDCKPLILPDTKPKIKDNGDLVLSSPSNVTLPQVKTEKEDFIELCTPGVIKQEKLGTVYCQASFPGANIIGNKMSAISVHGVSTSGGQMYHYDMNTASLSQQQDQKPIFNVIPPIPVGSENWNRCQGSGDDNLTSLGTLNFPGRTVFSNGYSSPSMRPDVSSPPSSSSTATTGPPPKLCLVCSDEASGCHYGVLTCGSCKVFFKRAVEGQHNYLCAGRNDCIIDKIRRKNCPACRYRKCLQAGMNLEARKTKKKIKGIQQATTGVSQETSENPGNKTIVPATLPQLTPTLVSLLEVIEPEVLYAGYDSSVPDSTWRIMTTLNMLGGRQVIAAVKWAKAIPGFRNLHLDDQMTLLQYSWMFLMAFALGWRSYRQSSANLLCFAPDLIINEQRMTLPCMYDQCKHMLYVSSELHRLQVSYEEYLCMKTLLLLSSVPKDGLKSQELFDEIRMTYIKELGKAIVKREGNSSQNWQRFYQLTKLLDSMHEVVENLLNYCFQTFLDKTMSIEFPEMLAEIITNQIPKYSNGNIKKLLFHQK
Method: Glucocorticoid Receptor Binding Assay (II)^b
In order to measure the binding of compounds on the glucocorticoid receptor a commercially available kit was used (Glucocorticoid receptor competitor assay kit, PanVera Co., Madison, W1, P2816). Briefly, a cell lysate containing recombinantly expressed human full-length glucocorticoid receptor was mixed with a fluorescently labeled glucocorticoid (4 nM FITC-dexamethasone) plus or minus test molecule. After one hour at room temperature, the fluorescence polarization (FP) of the samples were measured. […] Test molecules were analyzed in the concentration range from 0.1 nM to 40 μM.

[2] = target: T1, human full-length glucocorticoid receptor; assay: Glucocorticoid Receptor Binding Assay (I), fluorescence polarization, Fluormone GS Red; set-up: purified human recombinant full-length glucocorticoid receptor; purchased Invitrogen Part #2893
In short: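 Fluorescence polarization competition: 2 nM purified full-length recombinant receptor with 1 nM Fluormone GS Red tracer, ±test compound over 8.5E-05 to 5 μM. Incubation was 2 h at room temperature in the dark before reading FP.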

[3] = GR Binding Assay (II), read-out: GR (Ki, nM) (GR Binding Assay (II))
[4] = GR Binding Assay (I), read-out: GR (Ki, nM) (GR Binding Assay (I))

Structure (SMILES)	Ki [1, 3]	further results
CC(C)(C(=O)Nc1nc(Cc2ccccc2)cs1)C1c2ccccc2Oc2ccccc21 [Example 36]	1040 nM	–
CC(C)(C(=O)Nc1nccs1)C1c2ccccc2Oc2ccccc21 [Example 37]	1.4 nM	–
CC(C)(C(=O)Nc1nncs1)C1c2ccccc2Oc2ccccc21 [Example 39]	39.7 nM	–
CCOC(=O)c1csc(NC(=O)C(C)(C)C2c3ccccc3Oc3cc(OC)ccc32)n1 (centres unmarked) [Example 48]	60.9 nM	–
COc1ccc2c(c1)Oc1ccccc1[C@H]2C(C)(C)C(=O)Nc1nccs1 [Example 56]	233 nM	–
COc1ccc2c(c1)Oc1ccccc1[C@@H]2C(C)(C)C(=O)Nc1nccs1 [Example 60]	35.7 nM	–
COc1ccc2c(c1)Oc1ccccc1[C@@H]2C(C)(C)C(=O)Nc1ncc[nH]1 [Example 61]	909 nM	–
COc1ccc2c(c1)Oc1ccccc1[C@@H]2C(C)(C)C(=O)Nc1nncs1 [Example 62]	58 nM	–
CC(C)(C(=O)Nc1ncns1)C1c2ccccc2Oc2ncccc21 (centres unmarked) [Example 66]	665 nM	–
CC(C)(C(=O)Nc1nccs1)C1c2ccccc2Oc2ncccc21 (centres unmarked) [Example 67]	107 nM	–
CCOC(=O)c1csc(NC(=O)C(C)(C)C2c3ccccc3Oc3ncccc32)n1 (centres unmarked) [Example 68]	820 nM	–
Cc1cnc(NC(=O)C(C)(C)C2c3ccccc3Oc3ncccc32)s1 (centres unmarked) [Example 69]	515 nM	–
Cc1csc(NC(=O)C(C)(C)C2c3ccccc3Oc3ncccc32)n1 (centres unmarked) [Example 70]	762 nM	–
Cc1nnc(NC(=O)C(C)(C)C2c3ccccc3Oc3ncccc32)s1 (centres unmarked) [Example 71]	517 nM	–
CC(C)(C(=O)Nc1nccs1)C1c2ccccc2Oc2nc(Cl)ccc21 (centres unmarked) [Example 75]	29 nM	–
CC(C)(C(=O)Nc1nncs1)C1c2ccccc2Oc2nc(Cl)ccc21 (centres unmarked) [Example 76]	76.4 nM	–
CC(C)(C(=O)Nc1nccs1)C1c2ccccc2Oc2c(O)cccc21 (centres unmarked) [Example 81]	243 nM	–
COc1cccc2c1Oc1ccccc1C2C(C)(C)C(=O)Nc1nccs1 (centres unmarked) [Example 84]	104 nM	–
Cc1nc(NC(=O)C(C)(C)[C@H]2c3ccccc3Oc3cc(O)ccc32)sc1C [Example 86]	32.9 nM	–
Cc1nc(NC(=O)C(C)(C)[C@@H]2c3ccccc3Oc3cc(O)ccc32)sc1C [Example 91]	2550 nM	–
Cc1cnc(NC(=O)C(C)(C)[C@@H]2c3ccccc3Oc3cc(O)ccc32)s1 [Example 92]	1200 nM	–
Cc1csc(NC(=O)C(C)(C)[C@@H]2c3ccccc3Oc3cc(O)ccc32)n1 [Example 93]	1270 nM	–
CC(C)(C(=O)Nc1nccs1)[C@@H]1c2ccccc2Oc2cc(O)ccc21 [Example 94]	404 nM	–
CCOC(=O)c1csc(NC(=O)C(C)(C)C2c3ccccc3Oc3cc(O)ccc32)n1 (centres unmarked) [Example 96]	22.1 nM	–
CCOC(=O)c1csc(NC(=O)C(C)(C)C2c3ccccc3Oc3cc(OCOCCOC)ccc32)n1 (centres unmarked) [Example 97]	296 nM	–
COCCOCOc1ccc2c(c1)Oc1ccccc1C2C(C)(C)C(=O)Nc1nccs1 (centres unmarked) [Example 98]	88.7 nM	–
COC(=O)c1csc(NC(=O)C(C)(C)C2c3ccccc3Oc3cc(O)ccc32)n1 (centres unmarked) [Example 99]	18.3 nM	–

Structure (SMILES)	Ki [1, 3]	further results
CC(C)(C(=O)Nc1nncs1)[C@H]1c2ccccc2Oc2cc(C#N)ccc21 [Example 112]	9.3 nM	–
CNc1ccc2c(n1)Oc1ccccc1C2C(C)(C)C(=O)Nc1nccs1 (centres unmarked) [Example 127]	29.7 nM	–
CC(C)(C(=O)Nc1nncs1)[C@@H]1c2ccccc2Oc2nc(N3CCCCC3)ccc21 [Example 134]	444 nM	–
CC(C)(C(=O)Nc1nncs1)[C@@H]1c2ccccc2Oc2nc(N3CCC4(CC3)OCCO4)ccc21 [Example 135]	537 nM	–
CC(C)(C(=O)Nc1nncs1)[C@@H]1c2ccccc2Oc2nc(N3CCCC3)ccc21 [Example 137]	221 nM	–
CC(C)(C(=O)Nc1nncs1)[C@H]1c2ccccc2Oc2nc(N3CCCCC3)ccc21 [Example 138]	11.4 nM	–
C[C@H](Nc1ccc2c(n1)Oc1ccccc1[C@@H]2C(C)(C)C(=O)Nc1nncs1)c1ccccc1 [Example 142]	156 nM	–
C[C@@H](Nc1ccc2c(n1)Oc1ccccc1[C@@H]2C(C)(C)C(=O)Nc1nncs1)c1ccccc1 [Example 143]	744 nM	–
COC[C@H]1CCCN1c1ccc2c(n1)Oc1ccccc1[C@@H]2C(C)(C)C(=O)Nc1nncs1 [Example 145]	1160 nM	–
CC(C)(C(=O)Nc1nncs1)[C@H]1c2ccccc2Oc2nc(N3CCCCCC3)ccc21 [Example 146]	37 nM	–
CC(C)(C(=O)Nc1nncs1)[C@H]1c2ccccc2Oc2nc(N3CCCC(c4ccccc4)C3)ccc21 (some centres unmarked) [Example 147]	4030 nM	–
CC(C)(C(=O)Nc1nccs1)[C@H]1c2ccccc2Oc2nc(N3CCCCC3)ccc21 [Example 148]	11.1 nM	–
CN(C)c1ccc2c(n1)Oc1ccccc1[C@@H]2C(C)(C)C(=O)Nc1nncs1 [Example 149]	11 nM	–
CC1CCCN(c2ccc3c(n2)Oc2ccccc2[C@@H]3C(C)(C)C(=O)Nc2nncs2)C1 (some centres unmarked) [Example 150]	26.9 nM	–
CC(C)(C(=O)Nc1nncs1)[C@H]1c2ccccc2Oc2nc(NC(=O)c3ccccc3)ccc21 [Example 152]	10.9 nM	–
CCCCNc1ccc2c(c1)Oc1ncccc1C2C(C)(C)C(=O)Nc1nccs1 (centres unmarked) [Example 155]	31.8 nM	–
CC(C)Nc1ccc2c(n1)Oc1ccccc1C2C(C)(C)C(=O)Nc1nccs1 (centres unmarked) [Example 157]	186 nM	–
CC(C)(C(=O)Nc1nncs1)[C@H]1c2ccccc2Oc2nc(N3CCC(=O)CC3)ccc21 [Example 161]	36.6 nM	–
COc1ccc(-c2ccc3c(n2)Oc2ccccc2[C@H]3C(C)(C)C(=O)Nc2nncs2)cc1 [Example 162]	256 nM	–
CC(C)(C(=O)Nc1nncs1)[C@H]1c2ccccc2Oc2nc(-c3ccccc3)ccc21 [Example 171]	10.2 nM	Ki [2]: 7.15 nM
CC(C)(C(=O)Nc1nncs1)[C@H]1c2ccccc2Oc2nc(-c3cccc4ccccc34)ccc21 [Example 177]	460 nM	Ki [2, 4]: > 1150 nM
CC(C)(C(=O)Nc1nncs1)[C@H]1c2ccccc2Oc2nc(-c3ccc(Cl)cc3)ccc21 [Example 178]	4.7 nM	Ki [2, 4]: 10.6 nM
Cc1cccc(-c2ccc3c(n2)Oc2ccccc2[C@@H]3C(C)(C)C(=O)Nc2nncs2)c1 [Example 179]	–	Ki [1]: 37.9 nM; Ki [2]: 64.6 nM
CC(C)(C(=O)Nc1nncs1)[C@H]1c2ccccc2Oc2nc(-c3ccc4ccccc4c3)ccc21 [Example 186]	84.6 nM	Ki [2, 4]: 386 nM
CC(C)(C(=O)Nc1nncs1)[C@H]1c2ccccc2Oc2nc(-c3cccnc3)ccc21 [Example 187]	34.4 nM	Ki [2, 4]: 33.1 nM
COC(=O)c1ccc(-c2ccc3c(n2)Oc2ccccc2[C@@H]3C(C)(C)C(=O)Nc2nncs2)cc1 [Example 192]	13.1 nM	Ki [2, 4]: 12.3 nM
CC(C)(C(=O)Nc1nncs1)[C@H]1c2ccccc2Oc2nc(-c3ccc(C#N)cc3)ccc21 [Example 203]	13.1 nM	Ki [2, 4]: 4.61 nM
